Blank lines part the entries; values can stand above or below the molecule they belong to.
Assays:
[1] = system: STZ-diabetic rats; experiment: Sorbitol accumulation in red blood cell, lenses and sciatic nerves of STZ-diabetic rats; type: in vivo, SD rats; details: 2 weeks
Procedure: Diabetes mellitus was induced in male SD rats, weighing 220-250 g, by a single intraperitoneal injection of strptozotocin (Sigma chemical CO., St. Louis, Mo., USA) dissolved in phosphate buffered saline acidified to pH 4.5 with 0.05 M citric acid (66 mg/kg body wt). Control rats were injected with the vehicle only. The animals were fed standard Lab. Chows and water ad. Lib. throughout the experiments. Two weeks later, the diabetes-induced rats were used in following experiments. […] The extract was suspended in saline containing 0.5% carboxymethyl cellulose. The animals were then sacrificed under ether anesthesia. The contents of sorbitol in the red blood cell, sciatic nerves, and lenses were determined enzymatically. Sorbitol was measured by a modification of the enzymatic assay procedure described in the literature (Clements, R. S. et al.; Science, 166(908), pp1007-8, 1969). 0.5 ml of protein-free filtrate of tissues was added to a reaction mixture consisting of 1.0 ml of 0.05 M glycine buffer adjusted to pH 9.4 containing 0.2 mM nicotinamide adenine dinucleotide (NAD) and 0.64 U of sorbitol dehydrogenase. Blanks untreated with the filtrate, NAD, or sorbitol dehydrogenase, were routinely run simultaneously. The relative fluorescence due to NADH was measured with an excitation wavelength of 366 nm and an emission wavelength of 452 nm. Epalrestat used in the present invention is a conventional therapeutic drug for diabetic complications.

[2] = target: T1, rat lenses aldose reductase (Rattus norvegicus, UniProt P07943); experiment: Rat lens aldose reductase inhibition (NADPH decrease at 340 nm, DL-glyceraldehyde substrate); type: biochemical, Sprague-Dawley rats
T1 construct: The supernatant fraction of the rat lens homogenate was prepared according to the procedure described in the literature; from tissue; host or cells: lenses of Sprague-Dawley rats
Procedure: Crude aldose reductase was prepared as follows: rat lenses were removed from Sprague-Dawley rats weighing 250˜280 g and frozen until use. […] Partially purified enzyme having its a specific activity of 6.5 U/mg was routinely used to test enzyme inhibition. The partially purified material was separated into 1.0 ml of aliquots and stored at −40° C.
Each 1.0 ml of cuvette containing equal units of enzyme, 0.1M sodium phosphate buffer (pH 6.2), 0.3 mM NADPH with or without 10 mM substrate and inhibitor was prepared.

[3] = system: STZ-diabetic rats; experiment: Plasma glucose content in STZ-diabetic rats after 2 weeks of oral dosing; type: in vivo, Sprague-Dawley (SD) rats; details: 200 mg/kg/day intragastric
Procedure: All experiments were performed on Sprague-Dawley (SD) rats aged 10 weeks, weighed 200-250 g and purchased from the Seoul national university. The animals were acclimatized for 1-2 weeks before being used for the experiments. Standard pelleted diet and water were given ad libitum. Animals were maintained under constant 12 hours light and dark cycle and an environmental temperature ranging from 21 to 23° C. Diabetes mellitus was induced in male SD rats, weighing 220-250 g, by a single intraperitoneal injection of strptozotocin (Sigma chemical CO., St. Louis, Mo., USA) dissolved in phosphate buffered saline acidified to pH 4.5 with 0.05 M citric acid (66 mg/kg body wt). Control rats were injected with the vehicle only. The animals were fed standard Lab. Chows and water ad. Lib. throughout the experiments. Two weeks later, the diabetes-induced rats were used in following experiments. […] extracts were suspended in saline containing 0.5% carboxymethyl cellulose. The animals were then sacrificed under ether anesthesia and their blood samples were collected. Plasma glucose levels were determined by using a commercial kit.

[4] = system: normal rats; experiment: Oral glucose tolerance test in normal rats; type: in vivo, SD rats; details: extracts 300 mg/kg
Procedure: Prior to an oral glucose tolerance test, rats were fasted for 16 hours. And then saline for control group, 250 mg/kg of metformin, one of the biguanides drug for comparison group and each 300 mg/kg of Elfvingia applanata extracts, respectively, was orally administered to each group consisting of 10 rats. Thirty minutes later, 3 g/kg of glucose was orally administered to each rat with a feeding syringe. Blood samples were collected from carotid artery at (just before the oral administration of glucose), 60, 120, and 180 mins after glucose load for glucose assay.

inhibition at 0.001 µg/mL ([2]; concentration 0.001 μg/ml): 35% | inhibition at 0.01 µg/mL ([2]; concentration 0.01 μg/ml): 60.2% | inhibition at 0.1 µg/mL ([2]; concentration 0.1 μg/ml): 100%
Structure (SMILES): CC(/C=C1\SC(=S)N(CC(=O)O)C1=O)=C\c1ccccc1 [Epalrestat]
Sorbitol in the lenses ([1]; lenses, 200 mg/kg/day intragastric): 0.38 ± 0.05 nmol/mg dry wt. | Inhibition (%) of sorbitol accumulation in the lenses ([1]; lenses, 200 mg/kg/day): 52.5% | Sorbitol in the red blood cell ([1]; red blood cell, 200 mg/kg/day intragastric): 108.7 ± 11.6 nmol/g Hg | Inhibition (%) of sorbitol accumulation in the red blood cell ([1]; red blood cell, 200 mg/kg/day): 75.0% | Sorbitol in the sciatic nerves ([1]; sciatic nerves, 200 mg/kg/day intragastric): 4.3 ± 0.5 nmol/mg dry wt. | Inhibition (%) of sorbitol accumulation in the sciatic nerves ([1]; sciatic nerves, 200 mg/kg/day): 58.2% | Plasma glucose [3]: 3.9 ± 0.2 g/L | Inhibition (%) of plasma glucose ([3]; vs control): 31.6%

Structure (SMILES): CN(C)C(=N)N=C(N)N [Metformin, metformin]
Glucose, 1 hr ([4]; 1 hr after 3 g/kg oral glucose load, metformin 250 mg/kg oral): 140.1 ± 7.0 mg/dL | Glucose, 2hr ([4]; 2 hr after 3 g/kg oral glucose load, metformin 250 mg/kg oral): 122.8 ± 1.4 mg/dL | Glucose, 3hr ([4]; 3 hr after 3 g/kg oral glucose load, metformin 250 mg/kg oral): 139.7 ± 4.5 mg/dL | Glucose, 0 hr ([4]; just before 3 g/kg oral glucose load, metformin 250 mg/kg oral 30 min earlier): 54.5 ± 2.2 mg/dL

Structure (SMILES): O=C(O)CC1(CC(=O)O)CCCC1 [TMG, TetraMethylene Glutaric acid]
Inhibition (%) of aldose reductase ([2]; concentration 0.1 μg/ml): 40.6% | Inhibition (%) of aldose reductase ([2]; concentration 1 μg/ml): 51.3% | Inhibition (%) of aldose reductase ([2]; concentration 10 μg/ml): 76.4% | IC50 ([2]; rat lens enzyme, pH 6.2, unit (μM) printed beside the value): 0.46 µM

Reference: US7192591B2, “Pharmaceutical composition comprising an extract of Elfvingia applanata for the prevention and the treatment of diabetes and diabetic complications” (priority 2002, dated 2007)
